The target in data set [1] is T1, Free fatty acid receptor 1 (Homo sapiens, UniProt O14842). Briefly: Agonist activity at human GPR40 transfected in CHO cells by calcium flux assay relative to TAK-875. The format is functional, cell-based. Background: Calcium assays in cells follow changes in intracellular calcium, usually with a dye or a luminescent sensor.
The target of data set [2] is T1, Free fatty acid receptor 1. Briefly: Agonist activity at human GPR40 transfected in CHO cells by calcium flux assay. Type of data set: functional, cell-based.
The subject of data set [3] is Mus musculus. The experiment in a line: Antidiabetic activity in high fat feasted ICR mouse assessed as reduction of blood glucose excursion at 50 mg/kg, po administered 15 mins prior to dextrose challenge measured for 120 mins by OGTT. Type of data set: functional, organism-based. Details: dose 50 mg/kg.
Data set [4] has as its target Free fatty acid receptor 1 (Rattus norvegicus) (UniProt Q8K3T4). Briefly: Agonist activity at GPR40 in rat INS-1 cells assessed as glucose-stimulated insulin secretion relative to TAK-875. The format is cell-based. The settings on record: INS1.
Data set [5] can be described thus: Cmax in rat at 5 mg/kg, po. The settings on record: in vivo. Also on record: dose 5 mg/kg, route oral. Type of data set: ADME, organism-based.
The nature of data set [6]: AUC in rat at 5 mg/kg, po. The format is ADME, organism-based. As to conditions: plasma. Details: dose 5 mg/kg, route oral.
Data set [7] in a line: Half life in rat at 5 mg/kg, po. As to conditions: in vivo. Details: dose 5 mg/kg, route oral. Type of data set: ADME, organism-based.
Another data set has as its system Rattus norvegicus. Briefly: Volume of distribution in rat at 5 mg/kg, po. Type of data set: ADME, organism-based. Details: dose 5 mg/kg, route oral. As to conditions: in vivo.
The nature of data set [8]: Plasma clearance in rat at 5 mg/kg, po. The format is ADME, organism-based. Details: dose 5 mg/kg, route oral.
The subject of data set [9] is Mus musculus. Briefly: Antidiabetic activity in high fat feasted ICR mouse assessed as inhibition of blood glucose excursion at 50 mg/kg, po administered 15 mins prior to dextrose challenge measured for 120 mins by OGTT relative to control. Type of data set: functional.

SMILES strings stand for the structures. Active and inactive are the calls of the source.

T1 sequence (O14842 whole entry): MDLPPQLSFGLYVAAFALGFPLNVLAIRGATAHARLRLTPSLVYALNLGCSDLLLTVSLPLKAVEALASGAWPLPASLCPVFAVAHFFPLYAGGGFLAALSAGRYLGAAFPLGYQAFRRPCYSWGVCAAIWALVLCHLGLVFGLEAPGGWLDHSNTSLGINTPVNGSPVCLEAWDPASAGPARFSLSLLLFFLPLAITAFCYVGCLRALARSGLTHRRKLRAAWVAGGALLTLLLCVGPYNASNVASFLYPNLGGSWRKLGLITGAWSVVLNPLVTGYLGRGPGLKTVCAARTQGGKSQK
Free fatty acid receptor 1 (Rattus norvegicus), sequence (Q8K3T4 whole entry): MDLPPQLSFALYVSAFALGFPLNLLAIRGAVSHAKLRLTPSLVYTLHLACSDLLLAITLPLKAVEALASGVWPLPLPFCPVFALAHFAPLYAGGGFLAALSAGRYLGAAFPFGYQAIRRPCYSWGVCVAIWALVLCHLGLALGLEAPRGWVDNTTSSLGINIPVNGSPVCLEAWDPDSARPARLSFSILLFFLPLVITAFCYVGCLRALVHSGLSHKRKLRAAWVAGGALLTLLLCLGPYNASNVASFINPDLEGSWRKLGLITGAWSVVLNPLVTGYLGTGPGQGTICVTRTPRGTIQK

As a reminder, the Emax is the greatest response seen or fitted, relative to the assay's reference. A word on the EC50: it is the concentration needed to bring the measured effect to its halfway point. For `Cc1cc(OCCCS(C)(=O)=O)c(F)c(C)c1-c1cccc([C@@H]2COc3cc4c(cc3O2)OC[C@H]4CC(=O)O)c1`, the Emax in data set [1] was determined as 83%. The half-maximal effective concentration (EC50) in [2] was determined as 82.4 nM.
Take `Cc1cccc(C)c1-c1cccc([C@@H]2COc3cc4c(cc3O2)OC[C@H]4CC(=O)O)c1`: in data set [1], the maximal effect (Emax) is 85%. Further, in data set [2], the EC50 was found to be 52.9 nM.
The matching figures for `O=C(O)C[C@@H]1COc2cc3c(cc21)OC[C@H](c1cccc(Br)c1)O3`: 105% and 111 nM.
In the case of `Cc1cc(OCCCS(C)(=O)=O)cc(C)c1-c1cccc([C@@H]2COc3cc4c(cc3O2)OC[C@H]4CC(=O)O)c1`, the Emax in data set [1] turned out to be 124%. Moreover, the half-maximal effective concentration (EC50) in [2] turned out to be 55.9 nM.
The like results for `CS(=O)(=O)CCCOc1ccc(-c2cccc([C@H]3COc4cc5c(cc4O3)OC[C@H]5CC(=O)O)c2)c(Cl)c1` were, in that order, 71% and 145 nM.
As for `O=C(O)C[C@@H]1COc2cc3c(cc21)OC[C@@H](c1cccc(-c2ccccc2Cl)c1)O3`, in [1], the Emax is 99%. For the same molecule, in [2], the EC50 was determined as 66.7 nM.
The like results for `O=C(O)C[C@@H]1COc2cc3c(cc21)OCC(c1cccc(-c2ccccc2)c1)O3` (stereo partly specified) were, in that order, 105% and 65.4 nM.
The matching figures for `CS(=O)(=O)CCCOc1ccc(-c2cc(C3COc4cc5c(cc4O3)OC[C@H]5CC(=O)O)ccc2F)c(Cl)c1` (stereo partly specified): 66% and 125 nM.
With `Cc1cc(OCCCS(C)(=O)=O)cc(C)c1-c1ccc(F)c([C@@H]2COc3cc4c(cc3O2)OC[C@H]4CC(=O)O)c1`, the outcome in the data set with Mus musculus [3] was inactive. Also, the Emax in [1] came out at 87%. Besides, the EC50 in data set [2] stood at 46.5 nM.
In the case of `O=C(O)C[C@@H]1COc2cc3c(cc21)OCC(c1cccc(C2CC2)c1)O3` (stereo partly specified), the Emax in [1] came to 66%. In data set [2], the EC50 stood at 36.4 nM.
As for `Cc1ccccc1-c1cccc([C@@H]2COc3cc4c(cc3O2)OC[C@H]4CC(=O)O)c1`, the Emax in data set [1] came out at 76%. Also, the EC50 in [2] stood at 39.3 nM.
In the case of `Cc1cc(OCCCS(C)(=O)=O)cc(C)c1-c1ccc(F)c([C@H]2COc3cc4c(cc3O2)OC[C@H]4CC(=O)O)c1`, the outcome in the data set with Mus musculus [3] was Active. In addition, the Emax in data set [1] was found to be 83%. Besides, the 50% effective concentration (EC50) in data set [2] was 67.5 nM.
Turning to `O=C(O)C[C@@H]1COc2cc3c(cc21)OC[C@H](c1cccc(C(F)(F)F)c1)O3`, in [1], the Emax turned out to be 55.6%. Besides, in data set [2], the EC50 was 30.4 nM.
The matching figures for `Cc1cc(OCCCS(C)(=O)=O)cc(C)c1-c1cccc([C@H]2COc3cc4c(cc3O2)OC[C@H]4CC(=O)O)c1`: 111% and 282 nM.
The like results for `O=C(O)C[C@@H]1COc2cc3c(cc21)OCC(c1cccc(-c2ccc(F)cc2Cl)c1)O3` (stereo partly specified) were, in that order, 103% and 74.7 nM.
For `O=C(O)C[C@@H]1COc2cc3c(cc21)OC[C@H](c1ccc(Cl)c(Cl)c1)O3`, in [1], the Emax turned out to be 61%. In data set [2], the EC50 was 191 nM.
Turning to `O=C(O)C[C@@H]1COc2cc3c(cc21)OCC(c1cc(F)cc(Br)c1)O3` (stereo partly specified), the Emax in [1] was 38%. Besides, the EC50 in data set [2] was 105 nM.
The matching figures for `Cc1cc(F)ccc1-c1cccc(C2COc3cc4c(cc3O2)OC[C@H]4CC(=O)O)c1` (stereo partly specified): 77% and 35.9 nM.
The matching figures for `O=C(O)C[C@@H]1COc2cc3c(cc21)OCC(c1ccc(Br)cc1)O3` (stereo partly specified): 38% and more than 10000 nM.
Consider `Cc1ccc(C)c(-c2cccc(C3COc4cc5c(cc4O3)OC[C@H]5CC(=O)O)c2)c1` (stereo partly specified), for which the Emax in data set [1] was found to be 89%. Also, the EC50 in data set [2] was 88 nM.
For orientation: Cmax means the maximum level reached in the sampled fluid or tissue. The term AUC denotes the area under the concentration-time curve, a measure of exposure. Read a low AUC as low exposure. For orientation: half-life means the time needed for the level to fall by half in the phase considered. The CL/F is the apparent clearance, not corrected for the fraction that reaches the circulation. By inhibition in vivo is commonly meant the relative decrease from the control value, in per cent. Consider `O=C(O)C[C@@H]1COc2cc3c(cc21)OC[C@@H](c1ccc(Cl)c(Cl)c1)O3`, for which the Emax stood at 46.8% in data set [4] and 129% in data set [1]. Further, the Cmax in [5] was 18900 ng/mL. In addition, the exposure (AUC) in data set [6] was found to be 337 µg·h/mL. Further, the half-life in data set [7] was 13.3 h. For the same molecule, the Vd in the data set on Rattus norvegicus came out at 0.25 L/kg. The molecule also showed a CL/F in data set [8] of 0.167 mL/min/kg. In addition, the inhibition in vivo at 50 mg/kg in the data set on Mus musculus [9] was 4.9%. In addition, in [2], the EC50 came out at 16 nM.
For the molecule `Cc1cc(C)c(-c2cccc(C3COc4cc5c(cc4O3)OC[C@H]5CC(=O)O)c2)c(C)c1` (stereo partly specified), the Emax in [1] amounted to 103%. In addition, in data set [2], the EC50 is 61.6 nM.
The matching figures for `Cc1cc(OCCCS(C)(=O)=O)c(F)c(C)c1-c1cccc([C@H]2COc3cc4c(cc3O2)OC[C@H]4CC(=O)O)c1`: 77% and 121 nM.
The like results for `CS(=O)(=O)CCCOc1ccc(-c2cccc([C@@H]3COc4cc5c(cc4O3)OC[C@H]5CC(=O)O)c2)c(Cl)c1` were, in that order, 89% and 94.8 nM.
Take `O=C(O)C[C@@H]1COc2cc3c(cc21)OC[C@H](c1cccc(-c2ccccc2Cl)c1)O3` (mixture of isomers): the Emax in [1] amounted to 97%. Besides, the EC50 in [2] stood at 56.7 nM.
`CS(=O)(=O)CCCOc1ccc(-c2ccc(F)c(C3COc4cc5c(cc4O3)OC[C@H]5CC(=O)O)c2)c(Cl)c1` (stereo partly specified): the Emax in [1] is 102%. For the same molecule, the 50% effective concentration (EC50) in data set [2] came to 56.2 nM.
The matching figures for `Cc1cccc(C)c1-c1cccc([C@H]2COc3cc4c(cc3O2)OC[C@H]4CC(=O)O)c1`: 72% and 30.1 nM.
The matching figures for `O=C(O)C[C@@H]1COc2cc3c(cc21)OCC(c1cccc(-c2ccccc2F)c1)O3` (stereo partly specified): 115% and 73.2 nM.
The matching figures for `O=C(O)C[C@@H]1COc2cc3c(cc21)OCC(c1cccc(-c2ccccc2C(F)(F)F)c1)O3` (stereo partly specified): 104% and 74.5 nM.
As for `O=C(O)C[C@@H]1COc2cc3c(cc21)OCC(c1cc(F)cc(C(F)(F)F)c1)O3` (stereo partly specified), the Emax in data set [1] was determined as 79%. The EC50 in data set [2] amounted to 63.7 nM.
The like results for `Cc1cc(OCCCS(C)(=O)=O)ccc1-c1cccc(C2COc3cc4c(cc3O2)OC[C@H]4CC(=O)O)c1` (stereo partly specified) were, in that order, 53% and 123 nM.
The like results for `Cc1cc(C)cc(-c2cccc(C3COc4cc5c(cc4O3)OC[C@H]5CC(=O)O)c2)c1` (stereo partly specified) were, in that order, 68% and 132 nM.
As for `Cc1ccc(-c2cccc(C3COc4cc5c(cc4O3)OC[C@H]5CC(=O)O)c2)c(C)c1` (stereo partly specified), the Emax in data set [1] was found to be 90%. The EC50 in data set [2] was found to be 38.7 nM.
Regarding `O=C(O)C[C@@H]1COc2cc3c(cc21)OCC(c1cccc(Br)c1)O3` (stereo partly specified), in [1], the Emax came out at 89%. In addition, the EC50 in [2] worked out at 54.7 nM.
The like results for `CS(=O)(=O)CCCOc1ccc(-c2cc(F)cc(C3COc4cc5c(cc4O3)OC[C@H]5CC(=O)O)c2)c(Cl)c1` (stereo partly specified) were, in that order, 69% and 205 nM.
The like results for `O=C(O)C[C@@H]1COc2cc3c(cc21)OC[C@H](c1cccc(Cl)c1)O3` were, in that order, 72% and 220 nM.

Source of the values: ChEMBL document CHEMBL2380242, “Discovery of novel orally bioavailable GPR40 agonists” (Bioorg Med Chem Lett, 2013).
